Experimental data: patent US20220378791A1, “JAK1 INHIBITORS FOR THE TREATMENT OF MYELODYSPLASTIC SYNDROMES” (Incyte Corporation, priority 2014, published 2022)

Columns and labels:
[1] = target: T1, human JAK1 (a.a. 837-1142) (Homo sapiens, UniProt P23458); assay: In vitro JAK kinase assay (HTRF), JAK1; format: biochemical; settings: 1 mM ATP
T1 construct: human JAK1 (a.a. 837-1142); His tag (N); made in house; host or cells: insect cells (baculovirus)
Method: Compounds herein were tested for inhibitory activity of JAK targets according to the following in vitro assay described in Park et al., Analytical Biochemistry 1999, 269, 94-104. The catalytic domains of human JAK1 (a.a. 837-1142), JAK2 (a.a. 828-1132) and JAK3 (a.a. 781-1124) with an N-terminal His tag were expressed using baculovirus in insect cells and purified. The catalytic activity of JAK1, JAK2 or JAK3 was assayed by measuring the phosphorylation of a biotinylated peptide. The phosphorylated peptide was detected by homogenous time resolved fluorescence (HTRF). […] Reactions were carried out at room temperature for 1 hour and then stopped with 20 μL 45 mM EDTA, 300 nM SA-APC, 6 nM Eu-Py20 in assay buffer (Perkin Elmer, Boston, Mass.). Binding to the Europium labeled antibody took place for 40 minutes and HTRF signal was measured on a Fusion plate reader (Perkin Elmer, Boston, Mass.).

[2] = target: T2, human JAK2 (a.a. 828-1132) (Homo sapiens, UniProt O60674); assay: In vitro JAK kinase assay (HTRF), JAK2; format: biochemical; settings: IC50 ratio, selectivity for JAK1 over JAK2, 1 mM ATP
T2 construct: JAK2 (a.a. 828-1132); His tag (N); made in house; host or cells: insect cells (baculovirus)
T2 sequence (O60674 828-1132): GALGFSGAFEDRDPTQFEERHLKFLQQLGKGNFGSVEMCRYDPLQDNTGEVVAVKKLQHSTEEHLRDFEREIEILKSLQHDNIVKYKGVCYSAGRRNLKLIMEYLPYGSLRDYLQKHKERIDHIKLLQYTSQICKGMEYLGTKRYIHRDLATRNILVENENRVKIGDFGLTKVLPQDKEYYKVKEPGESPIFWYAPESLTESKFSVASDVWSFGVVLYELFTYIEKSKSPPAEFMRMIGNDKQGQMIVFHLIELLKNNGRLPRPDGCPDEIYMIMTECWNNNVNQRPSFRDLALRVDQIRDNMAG
Method: Compounds herein were tested for inhibitory activity of JAK targets according to the following in vitro assay described in Park et al., Analytical Biochemistry 1999, 269, 94-104. The catalytic domains of human JAK1 (a.a. 837-1142), JAK2 (a.a. 828-1132) and JAK3 (a.a. 781-1124) with an N-terminal His tag were expressed using baculovirus in insect cells and purified. The catalytic activity of JAK1, JAK2 or JAK3 was assayed by measuring the phosphorylation of a biotinylated peptide. The phosphorylated peptide was detected by homogenous time resolved fluorescence (HTRF). […] Reactions were carried out at room temperature for 1 hour and then stopped with 20 μL 45 mM EDTA, 300 nM SA-APC, 6 nM Eu-Py20 in assay buffer (Perkin Elmer, Boston, Mass.). Binding to the Europium labeled antibody took place for 40 minutes and HTRF signal was measured on a Fusion plate reader (Perkin Elmer, Boston, Mass.). See Table 2 for data for compounds of the examples as tested by the assay of Example A at 1 mM ATP.

MDS patients [3] = settings: 83 patients enrolled, 51 completed 12 weeks of therapy; cited from earlier work
MDS patients [4] = settings: study of 14 MDS patients; cited from earlier work

T1 sequence (P23458 849-1154): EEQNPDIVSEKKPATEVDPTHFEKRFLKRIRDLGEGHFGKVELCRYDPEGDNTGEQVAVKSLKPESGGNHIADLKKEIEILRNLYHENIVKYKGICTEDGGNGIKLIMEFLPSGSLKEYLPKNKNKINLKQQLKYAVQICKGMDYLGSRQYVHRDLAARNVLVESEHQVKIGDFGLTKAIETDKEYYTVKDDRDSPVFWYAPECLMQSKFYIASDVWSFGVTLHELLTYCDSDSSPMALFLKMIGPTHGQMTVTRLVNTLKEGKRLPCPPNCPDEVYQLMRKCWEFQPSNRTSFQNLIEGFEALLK

Row | IC50 [1] [nM] | JAK2/JAK1 [2] | Compound | further results
1 | < 10 | >10 | N#CCC1(n2cc(-c3ncnc4[nH]ccc34)cn2)CN([C@H]2CC[C@@H](Oc3cc(CN4CC[C@H](O)C4)cc(C(F)(F)F)n3)CC2)C1 [Example 20, {1-(cis-4-{[4-{[(3S)-3-hydroxypyrrolidin-1-yl]methyl}-6-(trifluoromethyl)pyridin-2-yl]oxy}cyclohexyl)-3-[4-(7H-pyrrolo[2,3-d]pyrimidin-4-yl)-1H-pyrazol-1-yl]azetidin-3-yl}acetonitrile] | 
2 | < 10 | >10 | C[C@@H](CO)NCc1cc(OC2CCN([C@H]3C[C@](CC#N)(n4cc(-c5ncnc6[nH]ccc56)cn4)C3)CC2)nc(C(F)(F)F)c1 [Example 21, {trans-3-(4-{[4-({[(1S)-2-hydroxy-1-methylethyl]amino}methyl)-6-(trifluoromethyl)pyridin-2-yl]oxy}piperidin-1-yl)-1-[4-(7H-pyrrolo[2,3-d]pyrimidin-4-yl)-1H-pyrazol-1-yl]cyclobutyl}acetonitrile] | 
3 | < 10 | >10 | C[C@@H](O)CNCc1cc(OC2CCN([C@H]3C[C@](CC#N)(n4cc(-c5ncnc6[nH]ccc56)cn4)C3)CC2)nc(C(F)(F)F)c1 [Example 22, {trans-3-(4-{[4-({[(2R)-2-hydroxypropyl]amino}methyl)-6-(trifluoromethyl)pyridin-2-yl]oxy}piperidin-1-yl)-1-[4-(7H-pyrrolo[2,3-d]pyrimidin-4-yl)-1H-pyrazol-1-yl]cyclobutyl}acetonitrile] | 
4 | < 10 | >10 | C[C@H](O)CNCc1cc(OC2CCN([C@H]3C[C@](CC#N)(n4cc(-c5ncnc6[nH]ccc56)cn4)C3)CC2)nc(C(F)(F)F)c1 [Example 23, {trans-3-(4-{[4-({[(2S)-2-hydroxypropyl]amino}methyl)-6-(trifluoromethyl)pyridin-2-yl]oxy}piperidin-1-yl)-1-[4-(7H-pyrrolo[2,3-d]pyrimidin-4-yl)-1H-pyrazol-1-yl]cyclobutyl}acetonitrile] | 
5 | < 10 | >10 | N#CC[C@]1(n2cc(-c3ncnc4[nH]ccc34)cn2)C[C@H](N2CCC(Oc3cc(CCO)cc(C(F)(F)F)n3)CC2)C1 [Example 24, {trans-3-(4-{[4-(2-hydroxyethyl)-6-(trifluoromethyl)pyridin-2-yl]oxy}piperidin-1-yl)-1-[4-(7H-pyrrolo[2,3-d]pyrimidin-4-yl)-1H-pyrazol-1-yl]cyclobutyl}acetonitrile] | 
6 |  |  | O=C1CCC(N2C(=O)c3ccccc3C2=O)C(=O)N1 (centres unmarked) [thalidomide] | patients showed hematologic improvement (MDS patients [3]): 16 patients; previously transfusion-dependent patients becoming transfusion independent (MDS patients [3]): 10 patients
7 |  |  | etanercept | erythroid hematologic improvement (MDS patients [4]): 25 % of patients; improvement in platelet counts and ANC (MDS patients [4]): 12.5 % of evaluable patients
